Test system: Rattus norvegicus
Experiment: Reduction in incidence of 600 mg/kg, sc ciprofloxacin-induced cartilage lesions in vitamin E-enriched diet fed immature Wistar rat after 10 days
Format: functional, organism-based
Parameters: dose 600 mg/kg; scale not given: the % may be the effect or the level left
Conditions: at 600 mg/kg

Work on VITAMIN E yielded an Activity of 41%.

Reference: ChEMBL document CHEMBL1142095, “Diminished ciprofloxacin-induced chondrotoxicity by supplementation with magnesium and vitamin E in immature rats” (Antimicrob Agents Chemother, 2007)
